# Laboratory results as given in patent publication EP1796707B1, “PEPTIDES THAT SELECTIVELY HOME TO HEART VASCULATURE AND RELATED CONJUGATES AND METHODS” (The Burnham Institute, priority 2004, dated 2011).
# How the values were obtained:
# heart vasculature = assay: In vivo phage homing to the heart after intravenous injection; details: peptide displayed on T7Select 415-1 phage, assayed individually, intravenous injection into mice
# Description: In vivo panning was performed as follows. The ex vivo-selected phage pool (5 x 10^9 p.f.u.) was intravenously injected into mice through the tail vein and allowed to circulate for ten minutes before mice were carefully perfused through the left ventricle with DMEM in order to remove unbound intravascular phage. The heart and control tissues (brain, kidney, skin and muscle) were excised, and phage recovered as described in Hoffman et al., supra, 2004. Phage recovered from the heart were reinjected into mice, and the cycle was repeated for a total of three rounds. Non-recombinant phage were injected into a separate mouse as a control in each experiment.
# As summarized in Table 1, receptor clone 5 represents the carboxy-terminal 92 amino acids of heart LIM-protein (HLP), also designated cysteine-rich protein 2 (CRIP2) and ESP 1. HLP, which is expressed in the vascular heart (Yu et al., Mech. Dev. 116:187-192 (2002)) is a LIM domain-containing protein having homology to Crp-1 (Karim et al., Genomics 31:167-176 (1996); and van Ham et al., Genes Cells 8:631-644 (2003)). Of the five positive colonies from the two-hybrid analysis with the HLP clone, three cognate peptides were identified: CRPPR (SEQ ID NO: 1) was present twice, CGRKSKTVC (SEQ ID NO: 2) once and CGNQVDSRC (SEQ ID NO: 3) twice. After cloning these peptides into the T7Select 415-1 display vector, they were assayed for their ability to home to heart vasculature following intravenous injection. Relative to non-recombinant phage, the CRPPR (SEQ ID NO: 1)-displaying phage homed with more than 300 fold selectivity to the heart (Figure 2A).
# Individual phage clones were reconstructed as follows. Oligonucleotides that encoded peptides from selected bait plasmids were synthesized, phosphorylated with T4 polynucleotide kinase (PNK; NEB) at 37°C for one hour, and annealed at a concentration of 0.08 pmol/µl. The annealed inserts were diluted to 0.04 pmol/µl and ligated into T7Select 415-1 arms (Novagen) with T4 ligase overnight at 16°C. The next day, intact recombinant phage were prepared by mixing the ligation reaction with packaging extracts as described by the manufacture. Inserts were confirmed by sequencing, and individual clones were amplified for ex vivo and in vivo testing as described in Example I above.
# MpcII-3-related protein = assay: Phage binding to 293T cells transfected with cognate receptor, with free peptide competition; design: species or system murine
# Description: (§1) Full-length cDNAs were constructed for four of the putative heart homing receptors, HLP/CRIP2, Sigirr/TIR8, and MpcII-3-related protein and bc10, and expressed in 293T cells. […]
# (§2) Receptor transfections and phage binding assays were performed as follows. 293T cells were transfected with pMH6-derived plasmids (Roche Diagnostics; Indianapolis, IN) encoding HLP/CRIP2, Sigirr/TIR8, MpcII-3-retated protein and bc10 using the Fugene transfection reagent (Roche Diagnostics). Briefly, 10 µg of plasmid was mixed with 700 µl of serum-free DMEM and 30 µl of Fugene transfection reagent and incubated for 15 minutes at room temperature before the mixture was added to cells. After forty-eight hours, cells were detached from culture dishes using EDTA and washed once with PBS. Phage displaying CRPPR (SEQ ID NO: 1), CKRAVR (SEQ ID NO: 7), CRSTRANPC (SEQ ID NO: 11) or CPKTRRVPC (SEQ ID NO: 12) and nonrecombinant control phage (1 x 10^9 p.f.u) were incubated with transfected cells for two hours at 4°C. Unbound phage were removed by five washes with 1% BSA in PBS. Bound phage were rescued by addition of bacteria; binding efficiencies were determined by plaque assay as described above.
# (§3) Peptides for competition assays were synthesized at The Burnham Institute peptide facility using Fmoc chemistry in a solid-phase synthesizer prior to purification by HPLC and confirmation of their identity by mass spectrometry. Fluorescein-conjugated peptides were synthesized as described in Wender et al., Proc. Natl. Acad. Sci. USA 97:13003-13008 (2000). Competition assays were performed by addition of 100 µg peptide to the cells and phage, followed by incubation at 4°C for two hours. After five washes with […], bound phage were rescued and quantitated by plaque assay.
# heart endothelia = assay: Phage localization in tissues: co-injection with fluorescein-conjugated tomato lectin, anti-T7 immunostaining; format: in vivo, mice; details: peptide displayed on phage, anti-T7 antibody; for phage presence in heart endothelia: injected intravenously with fluorescein-conjugated tomato lectin; for phage detection in tissues other than heart: same conditions
# Description: Further characterization was performed on the five most efficient homing peptides, as indicated by the fold-selectivity summarized in Table 1, and their putative receptors. These homing peptides were analyzed for the ability to selectively bind heart endothelia in vivo and for specific binding to their putative receptors, which also were analyzed for expression in heart endothelia. Each of the phage-displaying a particular homing peptide was individually injected intravenously into mice with fluorescein-conjugated tomato lectin, a blood vessel marker. […] None of the six phage were detected in tissues other than heart under the same conditions.
# Immunohistochemistry was performed as follows. Rat monoclonal anti-mouse CD31 (1:100) was obtained from BD Pharmingen (San Jose, CA), and rabbit polyclonal anti-T7 phage (1:500), and chicken anti-mouse CRIP2 IgY (1:100) were obtained from GenWay (San Diego, CA). Secondary antibodies, AlexaFluor-488 goat anti-rat IgG (1:1000) and AlexaFluor-594 goat anti-rat or rabbit IgG (1:1000) were obtained from Molecular Probes (Eugene, OR); the secondary antibody GAYFC-AlexaFluor 594 goat anti-IgY Fc (1:250) was obtained from GenWay. Frozen sections were preincubated with blocking buffer (5% normal goat serum and 0.5% BSA in 1x PBS) for one hour, washed three times with PBS, and incubated with the primary antibody of interest overnight at 4°C. After the overnight incubation, secondary antibodies were added and incubated for one hour at room temperature. Slides were washed three times with PBS and mounted in Vectashield Mounting Medium with DAPI (Vector Laboratories; Burlingame, California). Blood vessels were additionally visualized by intravenous injection with Lycopersicon esculentum (tomato) lectin conjugated to fluorescein (100 µg in 200 µl of PBS) purchased from Vector Laboratories.
# bc10 = assay: Phage binding to 293T cells transfected with cognate receptor, with free peptide competition; design: species or system murine
# Description: as §1, §2, §3
# [1] = conclusion from phage binding and competition on transfected 293T cells
sequence,measurement,setting,value
CGRKSKTVC,heart homing selectivity relative to non-recombinant phage,heart vasculature,about 50 fold
CRSTRANPC [tested on phage and as free peptide],specific binding to the receptor (in words),MpcII-3-related protein; [1],specifically binds
same,inhibition of phage binding to transfected cells by competition with free peptide,"MpcII-3-related protein; free synthetic peptide 100 mg/ml, CRSTRANPC phage on cells transfected with MpcII-3-related protein",inhibited
same,phage presence in heart endothelia,heart endothelia,present in heart endothelia
same,phage detection in tissues other than heart,heart endothelia,absent from other tissues
same,heart homing selectivity relative to non-recombinant phage,heart vasculature,about 20 fold
CLIDLHVMC [peptide identified with receptor clone 27; phage served as a negative control],phage presence in heart endothelia,heart endothelia,absent from the heart
same,phage detection in tissues other than heart,heart endothelia,absent from the heart and other tissues
CSGMARTKC,heart homing selectivity relative to non-recombinant phage,heart vasculature,~10 fold
CPKTRRVPC [tested on phage and as free peptide],specific binding to the receptor (in words),bc10; [1],specifically binds
same,inhibition of phage binding to transfected cells by competition with free peptide,"bc10; free synthetic peptide 100 µg/ml, CPKTRRVPC phage on bc10 transfected cells",inhibited
same,phage presence in heart endothelia,heart endothelia,present in heart endothelia
same,phage detection in tissues other than heart,heart endothelia,absent from other tissues
same,heart homing selectivity relative to non-recombinant phage,heart vasculature,about 60 fold
